Reference: US20220119399A1, “COMPOUNDS AND COMPOSITIONS THAT CAUSE MYCN AND/OR CMYC DEGRADATION AND METHODS OF USE THEREOF” (THE TRUSTEES OF COLUMBIA UNIVERSITY IN THE CITY OF NEW YORK, priority 2018, published 2022)
“Also recorded” adds a separate entry of the source.

Legend:
CCL5 transcript = assay: qPCR of CCL5 transcript in A549 cells; type: cell-based; conditions: 48 hr
Protocol: (§1) Reverse transcription quantitative polymerase chain reaction (RT-qPCR) was used to quantify transcript abundance of genes of interest. Total RNA was isolated from cells using the Qiaquick RNeasy isolation kit following manufacturer's instruction (QIAGEN). RNA quality and abundance was measured using a nanodrop spectrophotometer. A total of 2 μg RNA was used as a template for reverse transcription reactions. cDNA synthesis was performed using TaqMan reverse transcriptase following the manufacturer's instructions, using both oligod(T) and random hexamers as primers for RT reactions. RNAse treatment of cDNA removed any residual RNA in cDNA samples. cDNA samples were diluted 10-fold into nuclease-free dH2O, and used as the template for quantitative PCR reactions were performed in a Viia7 […] thermocycler using SYBR green and gene-specific primers (Table 1). qPCR reactions were performed using the Viia7 Real-Time PCR system (Applied Biosystems), and relative transcript abundance evaluated using the deltaCT method, using the GAPDH housekeeping gene as normalization control.
In lung cancer, cMyc overexpression suppresses CCL5, an antigen that enables the immune system to detect cancer cells (Topper et al. 2017). By suppressing CCL5, cMyc enables tumors to evade immune surveillance (Topper et al. 2017). […]

[1] = tested on: MycN^AMP regulatory module (Master Regulators, TCM); assay: PLATE-Seq with VIPER analysis: reversion of the MycN^AMP master regulator module; type: cell-based, human; conditions: SK-N-Be2 cells, IC20, 24 hrs
Source text: Reads were mapped against the human reference genome version Grch38 using the STAR aligner, and used the variance stabilizing transformation from the DESeq2 package for R to normalize each plate. Next, we corrected for batch effect due to having compounds replicates on separate plates. We used the function combat from the sva package for R to compute the batch-corrected normalized gene expression, and fitted a linear model for each compound against the set of DMSO controls on each plate (6 wells per plate per DMSO-treated cells). We used the limma package for R to fit the linear model and to compute p-values and moderated t-statistics for each gene. For each compound, we used a vector of these statistics to generate a gene expression profile of z-scores representing the compound effect as differential between post- and pre-treatment.
Each compound gene expression profile was analyzed using the VIPER algorithm (Alvarez et al. 2016) with TARGET and NRC NBL interactomes, reverse-engineered as described in (Rajbhandari et al. 2018), resulting in two protein activity profiles for each compound that were integrated using Stouffer's z-score method.

MYCN transcript = assay: RT-qPCR of MYCN transcript in SK-N-Be2 cells; type: cell-based, human; conditions: 15 μM, sampled 0, 3, 6, 9, 24 hrs
Protocol: as §1

[2] = Tolerability in tumor-bearing mice; type: in vivo; conditions: 10 mg/kg i.p., 24 hrs
Protocol: 6-week old male mice were purchased from Charles River Laboratories, and housed in Columbia University's animal control barrier facilities, and mice were allowed one week to acclimate to their new environment. To establish tumor xenografts, 10×10^6 SK-N-Be2 cells were suspended in a 200 μL volume of 50% matrigel slurry. […] Mice were kept on standard chow diet (Purina), and their cage dressing changed twice weekly. Animals were investigated regularly for any sign of discomfort. […] To create the stock solution of isopomiferin, 5 mg of isopomiferin (MicroSource) was dissolved into 50 μL dimethyl sulfoxide (DMSO). To this 450 μL of cyclodextrin solution was added dropwise. Cyclodextrin is dissolved as a 50% w/v solution in 40% EtOH. It is important to add the cyclodextrin slowly and with continual mixing to solubilize the compound. This solution was added to one volume of PBS and filter-sterilized. This solution was then diluted to achieve appropriate concentrations for a 200 μL volume administration at 10 mg/kg to each mouse. The solution was administered to animals via intraperitoneal injection (i.p.). […]
The ability of the compounds to inhibit growth of MYCNA tumor xenografts was evaluated by treating tumor bearing mice with daily i.p. injections of 20 mg/kg isopomiferin or pomiferin. […] MYCN abundance was evaluated mid-experiment, following 14 days of treatment.

SK-N-Be2 cells = type: in vitro ADME, human; conditions: human, 20 μM
Protocol: In brief, SK-N-Be2 cells were seeded at 400 k cells/well in 6 w plates and incubated overnight. The following day, compounds were added to wells at indicated concentrations, with DMSO-only control added to non-treated wells. Following treatment for the indicated time periods, cells were trypsinized, rinsed twice with cold PBS to remove media, pelleted by centrifugation, and frozen at −20° C. To extract compounds, frozen pellets were resuspended in 150 μL of acetonitrile, sonicated for 2′, and centrifuged at 1400×g for 75′ at 4° C. Supernatant was collected and analyzed by LC-MS using a system comprised of a Thermo Scientific Dionex Ultimate 3000 and a Bruker amaZon SL equipped with an electrospray ionization source controlled by a Bruker Hystar 3.2. Compounds were separated by injecting 20 μL of supernatant onto an Agilent Eclipse Plus C18 column (2.1×50 mm, […]) maintained at 20° C., with the flow rate set at 400 μL/min. Initial flow conditions were 60% solvent A (MilliQ H2O, 0.1% acetic acid), and 40% solvent B (HPLC-grade MeOH, 0.1% acetic acid). Solvent B was raised to 60% over 0.25 min and to 70% by 6.75 min. Solvent B was raised to 95% by 7 min and lowered back to 40% by 8 minutes; total run time was 9 min (Bos et al. 2019).

[3] = tested on: PARP and caspase3 cleavage; assay: Western blot of apoptosis hallmarks (cleaved PARP, cleaved caspase 3); type: cell-based, human; conditions: SK-N-Be2 cells, 48 hrs
Source text: Membranes were blocked using Odyssey Blocking Buffer (LI-COR) for 1 hr at room temperature. […] Primary antibodies used in these studies include: MycN (CST; 1:500 dilution), Actin (SCBT; 1:2000 dil.), cMYC (CST; 1:500 dil.), pAKT (S473; CST; 1:500 dil.), AKT (CST; 1:2000), pP70 (T389; CST; 1:1000) P70 (CST; 1:1000).

For `CC1(C)C=Cc2c(c3c(c4c(=O)c(-c5ccc(O)c(O)c5)coc24)OC(C)(C)CC3)O1` [isopomiferin], the “increase of CCL5 transcript” value (CCL5 transcript) was 15 fold, the “reversion of the MR regulatory module / TCM (VIPER of PLATE-Seq)” value [1] was “the top compound of the 90 tested; also recorded: had the strongest effect on the TCM” and the “MYCN transcript abundance (RT-qPCR)” value (MYCN transcript) was “transcript abundance decreased in a time-dependent manner”. For the same compound, the “toxicity observed in animals” value [2] was “No toxicity issues were observed”.
With `CC(C)=CCc1c2c(c3occ(-c4ccc(O)c(O)c4)c(=O)c3c1O)C=CC(C)(C)O2` [pomiferin] the “amount of compound detected in cell sample” value (SK-N-Be2 cells) was ~300 ng and the “induction of apoptosis (PARP and caspase3 cleavage)” value [3] was “more potent inducer of apoptosis than CX-4945”.
